The nature of one assay: Antagonist activity at CCR2 in human PBMC assessed as inhibition of MCP1-induced chemotaxis after 30 mins.
`O=C(CNC(=O)c1cccc(C(F)(F)F)c1)N[C@@H]1CCN([C@H]2CC[C@@](O)(c3cccnc3)CC2)C1`: the IC50 (as a rule, the concentration at which inhibition is half-maximal) was 3.9 nM.

As to `O=C(CNC(=O)c1cccc(C(F)(F)F)c1)N[C@@H]1CCN([C@H]2CC[C@@](O)(c3ccncc3)CC2)C1`, the IC50 came out at 3 nM.

As for `O=C(CNC(=O)c1cccc(C(F)(F)F)c1)N[C@@H]1CCN([C@H]2CC[C@@](O)(c3ncccn3)CC2)C1`, the IC50 was 9.3 nM.

Regarding `O=C(CNC(=O)c1cccc(C(F)(F)F)c1)N[C@@H]1CCN([C@H]2CC[C@@](O)(c3cncnc3)CC2)C1`, the IC50 worked out at 20 nM.

Turning to `O=C(CNC(=O)c1cccc(C(F)(F)F)c1)N[C@@H]1CCN([C@H]2CC[C@@](O)(c3cccnn3)CC2)C1`, the IC50 was 5.8 nM.

As to `O=C(CNC(=O)c1cccc(C(F)(F)F)c1)N[C@@H]1CCN([C@H]2CC[C@@](O)(c3ccnnc3)CC2)C1`, the IC50 is 7.2 nM.

`Cc1ccc([C@]2(O)CC[C@H](N3CC[C@@H](NC(=O)CNC(=O)c4cccc(C(F)(F)F)c4)C3)CC2)cn1`: the IC50 was 5.6 nM.

Turning to `CCOc1ccc([C@]2(O)CC[C@H](N3CC[C@@H](NC(=O)CNC(=O)c4cccc(C(F)(F)F)c4)C3)CC2)cn1`, the half-maximal inhibitory concentration (IC50) was 2.7 nM.

Another assay can be described thus: Antagonist activity at mouse CCR2 assessed as inhibition of MCP1-induced chemotaxis after 30 mins.
On to `Cc1ccc([C@]2(O)CC[C@H](N3CC[C@@H](NC(=O)CNC(=O)c4cccc(C(F)(F)F)c4)C3)CC2)cc1`, for which the 50% inhibitory concentration (IC50) was 156 nM.

The values above are taken from BindingDB's records for doi:10.1021/ml200030q (2011).
